Laboratory results from patent US10703746B2, “Mutant IDH1 inhibitors useful for treating cancer” (THE UNITED STATES OF AMERICA, AS REPRESENTED BY THE …, priority 2014, dated 2020).

Columns and labels:
IDH1 R132C = IDH1 R132C (Homo sapiens, UniProt O75874, R132C); assay: IDH1 R132C enzymatic assay (NADPH depletion coupled to diaphorase/resazurin); type: biochemical; details: IDH1 R132C enzymatic inhibition, IC50 class
Description: (§1) Assays were conducted in a 1536-well black solid-bottom plate with a final assay volume of 9 μL.
For IDH1 R132C, 3 μL of enzyme (0.00032 mg/mL IDH1 […], 10% glycerol, 50 mM potassium phosphate pH 6.5, 5 mM MgCl2, 0.03% BSA) were added to the plate, followed by the addition of 23 nL of test compound in DMSO. The plate was lidded and incubated at room temperature for 30 minutes at which time 3 μL of substrate were added (0.012 mM NADPH, 0.6 mM α-KG, 10% glycerol, 50 mM potassium phosphate pH 6.5, 5 mM MgCl2, 0.03% BSA). […]

IDH1 R132H = IDH1 R132H (Homo sapiens, UniProt O75874, R132H); assay: IDH1 R132H enzymatic assay (NADPH depletion coupled to diaphorase/resazurin); type: biochemical; details: IDH1 R132H enzymatic inhibition, IC50 class
Sequence of IDH1 R132H (O75874 whole entry R132H): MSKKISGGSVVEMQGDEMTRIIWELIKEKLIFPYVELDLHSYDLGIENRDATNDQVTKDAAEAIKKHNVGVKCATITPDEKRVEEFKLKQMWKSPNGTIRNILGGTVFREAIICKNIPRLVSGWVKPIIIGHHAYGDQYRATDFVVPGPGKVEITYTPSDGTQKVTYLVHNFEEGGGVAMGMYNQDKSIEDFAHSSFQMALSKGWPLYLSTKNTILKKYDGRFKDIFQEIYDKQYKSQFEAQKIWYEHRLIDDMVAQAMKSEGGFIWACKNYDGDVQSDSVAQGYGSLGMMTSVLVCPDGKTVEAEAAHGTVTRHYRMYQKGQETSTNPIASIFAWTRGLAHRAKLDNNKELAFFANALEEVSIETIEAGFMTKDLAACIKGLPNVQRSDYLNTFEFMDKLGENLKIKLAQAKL
Description: as §1
Specifically, for IDH1 R132H, 3 μL of enzyme (4 mM β-ME, 0.0005 mg/mL IDH1 R132H, 150 mM NaCl, 20 mM Tris pH 7.5, 10 mM MgCl2, 0.05% BSA) were added to the plate, followed by the addition of 23 nL of test compound in DMSO. The plate was lidded and incubated at room temperature for 30 minutes at which time 3 μL of substrate were added (0.016 mM NADPH, 2 mM α-KG, 150 mM NaCl, 20 mM Tris pH 7.5, 10 mM MgCl2, 0.05% BSA). This reaction was incubated at room-temperature for 60 minutes at which time the detection mix was added (0.06 mg/mL diaphorase, 0.036 mM resazurin, 150 mM NaCl, 20 mM Tris pH 7.5, 10 mM MgCl2, 0.05% BSA). […]

Sequence of IDH1 R132C (O75874 whole entry R132C): as the sequence (O75874 whole entry R132H) above, with H132C counted along it

SMILES	IC50 (IDH1 R132C) [nM]	IC50 (IDH1 R132H) [nM]
CNc1ccccc1-n1c2c(cc(-c3nc(-c4ccc(Cl)cc4)cs3)c1=O)C(=O)CC(C)(C)C2 [Compound 42]	1000 to 5000	1000 to 5000
CCc1cccc(CC)c1-n1c(CC(C)C)c(C(=O)N2CCNCC2C)cc(-c2nc(-c3ccc(Cl)cc3)cs2)c1=O (stereo not shown) [Compound 43]	< 300	300 to 1000
CCCCc1ccc(-c2nc(-c3cc(C(=O)N4CCNCC4)c(CC(C)C)n(-c4c(CC)cccc4CC)c3=O)sc2C)cc1 [Compound 44]	1000 to 5000	1000 to 5000
COc1cccc(C(=O)O)c1-n1c2c(cc(-c3nc(-c4ccc(Cl)cc4)cs3)c1=O)C(=O)CC(C)(C)C2 [Compound 46]	1000 to 5000	1000 to 5000
CCc1cccc(CC)c1-n1c(C(C)C)c(C(=O)N[C@H](C)CO)cc(-c2nc(-c3ccc(Cl)cc3)cs2)c1=O [Compound 47]	1000 to 5000	1000 to 5000
CCc1cccc(CC)c1-n1c(CC(C)C)c(C(=O)N2CCNC(C(N)=O)C2)cc(-c2nc(-c3ccc(Cl)cc3)cs2)c1=O (stereo not shown) [Compound 48]	< 300	300 to 1000
CC1(C)CC(=O)c2cc(-c3nc(-c4ccc(Cl)cc4)cs3)c(=O)n(-c3ccccc3Oc3ccccc3)c2C1 [Compound 49]	< 300	< 300
CC1(C)CC(=O)c2cc(-c3nc(-c4ccc(Cl)cc4)cs3)c(=O)n(-c3ccccc3C3CC3)c2C1 [Compound 50]	300 to 1000	300 to 1000
CC(C)Sc1ccccc1-n1c2c(cc(-c3nc(-c4ccc(Cl)cc4)cs3)c1=O)C(=O)CC(C)(C)C2 [Compound 51]	1000 to 5000	> 20000
COc1cccc(C)c1-n1c2c(cc(-c3nc(-c4ccc(Cl)cc4)cs3)c1=O)C(=O)CC(C)(C)C2 [Compound 52]	1000 to 5000	1000 to 5000
CCc1cccc(CC)c1-n1c(C)c(C(=O)N2CCN(C)CC2)cc(-c2nc(-c3ccc(Cl)cc3)cs2)c1=O [Compound 53]	300 to 1000	1000 to 5000
CCc1cccc(CC)c1-n1c(CC(C)C)c(C(=O)NC(C)(C)CO)cc(-c2nc(-c3ccc(Cl)cc3)cs2)c1=O [Compound 54]	300 to 1000	300 to 1000
CC(C)n1c2c(cc(-c3nc(-c4ccc(Cl)cc4)cs3)c1=O)C(=O)CC(C)(C)C2 [Compound 55]	1000 to 5000	> 20000
CN(C)c1ccccc1-n1c2c(cc(-c3nc(-c4ccc(Cl)cc4)cs3)c1=O)C(=O)CC(C)(C)C2 [Compound 56]	300 to 1000	300 to 1000
CC1(C)CC(=O)c2cc(-c3nc(-c4ccc(Cl)cc4)cs3)c(=O)n(-c3ccccc3C(F)(F)F)c2C1 [Compound 57]	< 300	300 to 1000
CCc1cccc(C(=O)O)c1-n1c2c(cc(-c3nc(-c4ccc(Cl)cc4)cs3)c1=O)C(=O)CC(C)(C)C2 [Compound 58]	1000 to 5000	300 to 1000
COc1cccc(OC)c1-n1c2c(cc(-c3nc(-c4ccc(Cl)cc4)cs3)c1=O)C(=O)CC(C)(C)C2 [Compound 59]	1000 to 5000	1000 to 5000
CCc1cccc(CC)c1-n1c(C)c(C(=O)N2CCN[C@H](C(=O)O)C2)cc(-c2nc(-c3ccc(Cl)cc3)cs2)c1=O [Compound 60]	300 to 1000	300 to 1000
CCc1cccc(CC)c1-n1c(CC(C)C)c(C(=O)N2[C@H](C)CNC[C@@H]2C)cc(-c2nc(-c3ccc(Cl)cc3)cs2)c1=O [Compound 61]	< 300	300 to 1000
COc1ccc(OC)c(-n2c(C)ccc(-c3nc(-c4ccc(Cl)cc4)cs3)c2=O)c1 [Compound 62]	5000 to 20000	> 20000
CCc1cccc(CC)c1-n1c(CC(C)C)c(C(=O)N2CC(O)C2)cc(-c2nc(-c3ccc(Cl)cc3)cs2)c1=O [Compound 63]	300 to 1000	1000 to 5000
CCc1cccc(CC)c1-n1c(CC(C)C)c(C(=O)N[C@H](C)CO)cc(-c2nc(-c3ccc(Cl)cc3)cs2)c1=O [Compound 64]	300 to 1000	1000 to 5000
COc1ccc(OC)c(-n2c3c(cc(-c4cn(-c5ccc(Cl)cc5)cn4)c2=O)C(=O)CC(C)(C)C3)c1 [Compound 65]	5000 to 20000	> 20000
CCc1cccc(CC)c1-n1c(C)c(C(=O)N2CCCNCC2)cc(-c2nc(-c3ccc(Cl)cc3)cs2)c1=O [Compound 66]	300 to 1000	300 to 1000
CCc1cccc(CC)c1-n1c(C)c(C(=O)N2CCCCC2C(=O)O)cc(-c2nc(-c3ccc(Cl)cc3)cs2)c1=O (stereo not shown) [Compound 67]	5000 to 20000	1000 to 5000

SMILES	IC50 (IDH1 R132C) [nM]	IC50 (IDH1 R132H) [nM]
COc1ccc(OC)c(-n2c(=O)c(-c3nc(-c4ccc(Cl)cc4)cs3)cc3c(O)cccc32)c1 [Compound 68]	> 20000	> 20000
COc1ccc(OC)c(-n2c3c(cc(-c4nc(C5CCCCC5)cs4)c2=O)C(=O)CC(C)(C)C3)c1 [Compound 69]	1000 to 5000	1000 to 5000
CCc1cccc(CC)c1-n1c(CC(C)C)c(C(=O)N2CCNC(C)(C)C2)cc(-c2nc(-c3ccc(Cl)cc3)cs2)c1=O [Compound 70]	< 300	300 to 1000
Cc1ccc(-c2csc(-c3cc4c(n(-c5ccccc5C(F)(F)F)c3=O)CC(C)(C)CC4=O)n2)cc1 [Compound 71]	300 to 1000	300 to 1000
Cc1cc(-n2c3c(cc(-c4nc(-c5ccc(Cl)cc5)cs4)c2=O)C(=O)CC(C)(C)C3)n(C)n1 [Compound 72]	1000 to 5000	1000 to 5000
COc1ccc(OC)c(-n2c3c(cc(-c4nc(-c5ccc(Cl)cc5)cs4)c2=O)CCC(C)(C)C3)c1 [Compound 73]	1000 to 5000	1000 to 5000
CCc1cccc(CC)c1-n1c2c(cc(-c3nc(-c4ccc(Cl)cc4)cs3)c1=O)C(=O)NC2 [Compound 74]	5000 to 20000	1000 to 5000
CCc1cccc(CC)c1-n1c(CC(C)C)c(C(=O)N2CCNCC2C(=O)O)cc(-c2nc(-c3ccc(Cl)cc3)cs2)c1=O (stereo not shown) [Compound 75]	300 to 1000	1000 to 5000
CCc1cccc(CC)c1-n1c(CC(C)C)c(C(=O)N2CCNCC2)cc(-c2nc(-c3ccc(C)cc3)c(C)s2)c1=O [Compound 76]	< 300	< 300
CCc1cccc(CC)c1-n1c(CC(C)C)c(C(=O)NCC(C)(C)O)cc(-c2nc(-c3ccc(Cl)cc3)cs2)c1=O [Compound 77]	< 300	300 to 1000
COc1ccc(OC)c(-n2cccc(-c3nc(-c4ccc(Cl)cc4)cs3)c2=O)c1 [Compound 78]	> 20000	> 20000
O=c1[nH]cccc1-c1nc(-c2ccc(Cl)cc2)cs1 [Compound 79, 3-(4-(4-chlorophenyl)thiazol-2-yl)pyridin-2(1H)-one]	> 20000	> 20000
CCc1cccc(CC)c1-n1c(CC(C)C)c(C(=O)N2CCNC(C)(C(=O)O)C2)cc(-c2nc(-c3ccc(Cl)cc3)cs2)c1=O (stereo not shown) [Compound 80]	< 300	300 to 1000
CCc1cccc(CC)c1-n1c(CC(C)C)c(C(=O)N2CCNCC2)cc(-c2nc(-c3ccccc3)c(C)s2)c1=O [Compound 81]	300 to 1000	< 300
CCc1cccc(CC)c1-n1c(CC(C)C)c(C(=O)N2CCNCC2)cc(-c2nc(-c3ccc(Cl)cc3)c(C)s2)c1=O [Compound 82]	< 300	< 300
CCc1cccc(CC)c1-n1c(C)c(C(=O)N2CCN[C@@H](C(=O)OC)C2)cc(-c2nc(-c3ccc(Cl)cc3)cs2)c1=O [Compound 83]	300 to 1000	1000 to 5000
CCc1cccc(CC)c1-n1c(C(C)C)c(C(=O)N2CCNC(CO)C2)cc(-c2nc(-c3ccc(Cl)cc3)cs2)c1=O (stereo not shown) [Compound 84]	< 300	300 to 1000
CC1(C)CC(=O)c2cc(-c3nc(-c4ccc(C(F)(F)F)cc4)cs3)c(=O)n(-c3ccccc3C(F)(F)F)c2C1 [Compound 85]	300 to 1000	300 to 1000
CCc1cccc(CC)c1-n1c(C(C)C)c(C(=O)N2CCNCC2)cc(-c2nc(-c3ccc(Cl)cc3)cs2)c1=O [Compound 86]	< 300	300 to 1000
CCc1cccc(CC)c1-n1c(CC(C)C)c(C(=O)N2CCNCC2)cc(-c2nc(-c3ccc(C(=O)N4CCOCC4)cc3)c(C)s2)c1=O [Compound 87]	5000 to 20000	5000 to 20000
CCc1cccc(CC)c1-n1c(C(C)C)c(C(=O)N2CCNC(C(=O)O)C2)cc(-c2nc(-c3ccc(Cl)cc3)cs2)c1=O (stereo not shown) [Compound 88]	< 300	< 300
CCc1cccc(CC)c1-n1c(CC(C)C)c(C(=O)N2CCC(CO)C2)cc(-c2nc(-c3ccc(Cl)cc3)cs2)c1=O (stereo not shown) [Compound 89]	300 to 1000	1000 to 5000
CCc1cccc(CC)c1-n1c(CC(C)C)c(C(=O)N2CCNC(=O)C2)cc(-c2nc(-c3ccc(Cl)cc3)cs2)c1=O [Compound 91]	< 300	< 300
CC1(C)CC(=O)c2cc(-c3nc(-c4ccc(Cl)cc4)cs3)c(=O)n(-c3cc(C(F)(F)F)ccc3N3CCOCC3)c2C1 [Compound 92]	1000 to 5000	1000 to 5000
COc1ccc(OC)c(-n2c3c(cc(C(=O)NCc4ccc(Cl)cc4)c2=O)C(=O)CC(C)(C)C3)c1 [Compound 93]	5000 to 20000	5000 to 20000
